Results: patent US7081260B2, “α-Glucosidase inhibitors from a natural source” (Council of Scientific and Industrial Research, priority 2002, dated 2006)
Values after ≈ are worked out from the molar mass of the structure shown.

Experiments:
[1] = molecular target: yeast α-glucosidase enzyme; assay: α-glucosidase inhibitory assay by the chromogenic method; assay type: biochemical; settings: p-nitrophenyl-α-D-glucopyranoside substrate; for IC50 value: pH 7.00; for α-glucosidase inhibitory activity up to: pH 7.00, maximum inhibition
Procedure: Determination of α-Glucosidase Inhibition Activity of Compounds Isolated From P. longum:
The α-glucosidase inhibitory assay was done by the chromogenic method. In brief 10 μl of test compounds dissolved in DMSO (5 mg/ml and subsequent dilutions) were incubated for 5 min. with 5 μl of yeast α-glucosidase enzyme prepared in 100 mM phosphate buffer (pH 7.00). After 5 minutes of incubation, […] of 5 mM substrate (p-nitrophenyl-α-D-glucopyranoside prepared in the same buffer) were added. The pre-substrate and 5-min post-substrate addition absorbances were recorded at 405 nm spectrophotometrically. The increases in absorbance from pre-substrate addition to post substrate reaction were obtained. Percent inhibition was calculated by (1-O.D test/O.D control)×100 and inhibitory concentration 50% (IC50) was calculated by applying suitable regression analysis.

[2] = in vivo; cited from earlier work
Toxocara canis = settings: against Toxocara canis; cited from earlier work
Collosobruchus chinenses = settings: against Collosobruchus chinenses; cited from earlier work
Cladosporiumsphaerosperm = settings: against Cladosporiumsphaerosperm; cited from earlier work
[3] = test system: p. gossipiella, H. virescens, H. ze; settings: against p. gossipiella; cited from earlier work
[4] = test system: Moth fly (Telmatoscopus Albipunctatus); settings: against Moth fly (Telmatoscopus Albipunctatus); cited from earlier work
[5] = test system: Leplinotarsa dectmlineata; settings: against Leplinotarsa dectmlineata; cited from earlier work
Aedus Eriseratus larvae = settings: against Aedus Eriseratus larvae; cited from earlier work
Musca Domestica = settings: against Musca Domestica; cited from earlier work
8 Mycobacterium stains = settings: against 8 Mycobacterium stains; cited from earlier work

| SMILES | IC50 value [1] | α-glucosidase inhibitory activity up to [1] | BIOLOGICAL ACTIVITY: insecticidal activity [2] | BIOLOGICAL ACTIVITY: larvicidal (Toxocara canis) | BIOLOGICAL ACTIVITY: insecticidal (Collosobruchus chinenses) | BIOLOGICAL ACTIVITY: antifungal (Cladosporiumsphaerosperm) | BIOLOGICAL ACTIVITY: insect growth inhibitor [3] | BIOLOGICAL ACTIVITY: insecticidal [4] | BIOLOGICAL ACTIVITY: ovicidal [5] | BIOLOGICAL ACTIVITY: larvicida activity (Aedus Eriseratus larvae) | BIOLOGICAL ACTIVITY: insecticidal (Musca Domestica) | BIOLOGICAL ACTIVITY: antituberculotic (8 Mycobacterium stains) |
| --- | --- | --- | --- | --- | --- | --- | --- | --- | --- | --- | --- | --- |
| CC(C)CNC(=O)C=CC=CCCCCCCCCC=Cc1ccc2c(c1)OCO2 [brachystamide-B, 15-(1,3-benzodioxol-5-yl)-N(2-methylpropyl)-2,4,14-pentadecatrienamide] | 33.61 µg/mL (≈ 81.7 µM) | up to 73.90% | – | – | – | – | – | – | – | – | – | – |
| CC(C)CNC(=O)/C=C/C=C/CCCCCC/C=C/c1ccc2c(c1)OCO2 [guineensine, 13-(1,3-benzodioxol-5-yl)-N(2-methylpropyl)-2,4,12-tri decatrienamide] | 20.15 µg/mL (≈ 52.5 µM) | up to 61.71% | Insecticidal activity | Larvicidal against Toxocara | Insectcidal against | – | – | – | – | – | – | – |
| CCCCCC=CC=CC(=O)NCC(C)C [pellitorine, N-(2-methylpropyl)-2,4-decadienamide] | 34.43 µg/mL (≈ 154 µM) | up to 86.03% | – | – | Insecticidal against | Antifungal against | Insectgrowth inhibitor against | Insecticidal activities against | Ovicidal against Leplinotarsa | Larvicida activity against | Insecticidal against Musca | Antituberculotic against 8 |
| CCCCCCCCCCC=Cc1ccc2c(c1)OCO2 [pipataline, 5-(1-dodecenyl)-1,3-benzodioxol] | 26.52 µg/mL (≈ 91.9 µM) | up to 77.45% | – | – | – | – | – | – | – | – | – | – |
| c1cc2c(cc1[C@H]1OC[C@H]3[C@@H]1CO[C@@H]3c1ccc3c(c1)OCO3)OCO2 [sesamin, 5,5-(tetrahydro-1H,3H-furo(3,4-e)furan-1,4-diyl)bis-1,3-benzodioxol] | 36.35 µg/mL (≈ 103 µM) | up to 76.18% | – | – | – | – | – | – | – | – | – | – |
